From ChEMBL document CHEMBL1909046, “DrugMatrix in vitro pharmacology data”
Where a SMILES comes first, the peptide text is derived from it. Bridges are numbered along the chain shown (N, C = ends). [ ]: non-standard residue; d: D form. The star is where a group is joined. Threoninol(2S,3R) = C[C@@H](O)[C@H](CO)N*

Tests used:
[1] = target: C-C chemokine receptor type 2 (Homo sapiens, UniProt P41597); format: cell membranes, CHO-K1, Membrane; note: in other assays of this panel Not Active means under 50% inhibition at 10 µM
Sequence of C-C chemokine receptor type 2 (P41597 whole entry): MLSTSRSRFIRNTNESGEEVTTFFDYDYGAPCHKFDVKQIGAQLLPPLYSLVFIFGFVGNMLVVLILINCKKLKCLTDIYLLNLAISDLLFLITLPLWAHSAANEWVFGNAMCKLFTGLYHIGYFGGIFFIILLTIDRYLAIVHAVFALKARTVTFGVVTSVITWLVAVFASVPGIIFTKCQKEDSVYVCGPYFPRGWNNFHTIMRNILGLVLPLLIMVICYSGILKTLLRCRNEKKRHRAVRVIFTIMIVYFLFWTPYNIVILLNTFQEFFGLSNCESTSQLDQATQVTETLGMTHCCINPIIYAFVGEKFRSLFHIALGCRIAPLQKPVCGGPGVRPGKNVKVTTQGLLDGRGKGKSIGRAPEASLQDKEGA

[2] = target: Mitogen-activated protein kinase 1 (Homo sapiens, UniProt P28482); test: DRUGMATRIX: Protein Serine/Threonine Kinase, ERK2 enzyme inhibition (substrate: Myelin Basic Protein); set-up: species or system Escherichia coli; settings: Not Active = under 50% inhibition at 10 µM
Sequence of Mitogen-activated protein kinase 1 (P28482 whole entry): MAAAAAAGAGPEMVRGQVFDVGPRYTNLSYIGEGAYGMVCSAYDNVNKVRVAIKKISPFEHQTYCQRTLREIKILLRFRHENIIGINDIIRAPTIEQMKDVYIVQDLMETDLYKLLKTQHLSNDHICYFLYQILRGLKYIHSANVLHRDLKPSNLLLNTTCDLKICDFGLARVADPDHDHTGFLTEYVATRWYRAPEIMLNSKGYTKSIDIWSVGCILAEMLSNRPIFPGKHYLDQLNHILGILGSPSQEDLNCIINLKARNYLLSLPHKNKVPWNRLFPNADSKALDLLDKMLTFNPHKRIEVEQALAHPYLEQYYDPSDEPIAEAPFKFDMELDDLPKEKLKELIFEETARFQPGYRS

[3] = DRUGMATRIX: Atrial Natriuretic Factor (ANF) radioligand binding (ligand: [125I] ANF (rat)); format: cell membranes, Cavia porcellus, Dunkin-Hartley, Adrenal gland, Membrane; settings: Not Active = under 50% inhibition at 10 µM
[4] = target: Mitogen-activated protein kinase 3 (Homo sapiens, UniProt P27361); test: DRUGMATRIX: Protein Serine/Threonine Kinase, ERK1 enzyme inhibition (substrate: Myelin Basic Protein); set-up: species or system Escherichia coli; settings: Not Active = under 50% inhibition at 10 µM
Sequence of Mitogen-activated protein kinase 3 (P27361 whole entry): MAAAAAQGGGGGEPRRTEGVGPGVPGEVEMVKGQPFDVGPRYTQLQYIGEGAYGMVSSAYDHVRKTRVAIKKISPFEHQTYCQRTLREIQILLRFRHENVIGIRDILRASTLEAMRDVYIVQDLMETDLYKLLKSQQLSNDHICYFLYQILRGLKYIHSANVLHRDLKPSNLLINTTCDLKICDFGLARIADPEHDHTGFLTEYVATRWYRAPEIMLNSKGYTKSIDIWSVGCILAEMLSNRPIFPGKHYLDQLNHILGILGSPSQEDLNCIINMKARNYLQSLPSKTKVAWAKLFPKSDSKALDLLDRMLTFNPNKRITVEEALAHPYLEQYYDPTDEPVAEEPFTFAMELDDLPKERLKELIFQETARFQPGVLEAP

[5] = DRUGMATRIX: Glutamate, NMDA, Phencyclidine radioligand binding (ligand: [3H] TCP); format: cell membranes, Rattus norvegicus, Wistar, Cerebral cortex, Membrane; settings: Not Active = under 50% inhibition at 10 µM
[6] = target: Cytochrome P450 2C9 (Homo sapiens, UniProt P11712); settings: bti-tn-5b1-4; note: in other assays of this panel Not Active means under 50% inhibition at 10 µM
Sequence of Cytochrome P450 2C9 (P11712 whole entry): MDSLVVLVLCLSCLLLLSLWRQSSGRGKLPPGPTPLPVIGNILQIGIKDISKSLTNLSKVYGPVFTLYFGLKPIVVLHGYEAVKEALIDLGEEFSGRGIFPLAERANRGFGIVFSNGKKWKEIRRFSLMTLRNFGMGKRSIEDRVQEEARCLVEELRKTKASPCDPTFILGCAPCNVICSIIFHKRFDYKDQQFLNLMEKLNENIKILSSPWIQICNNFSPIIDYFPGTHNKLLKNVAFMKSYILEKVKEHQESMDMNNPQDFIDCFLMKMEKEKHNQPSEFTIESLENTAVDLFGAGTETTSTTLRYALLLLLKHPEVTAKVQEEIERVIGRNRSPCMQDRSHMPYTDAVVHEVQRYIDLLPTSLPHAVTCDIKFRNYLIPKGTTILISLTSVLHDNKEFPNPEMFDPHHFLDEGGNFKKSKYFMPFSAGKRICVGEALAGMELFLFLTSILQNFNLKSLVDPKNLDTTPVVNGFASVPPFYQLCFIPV

SMILES | IC50 ([1]; cho-k1) | IC50 [2] | IC50 [3] | Ki [3] | IC50 [4] | IC50 [5] | Ki [5] | IC50 [6] | Ki [6] | IC50 ([1]; read-out: IC50) | Ki ([1]; read-out: Ki) | Ki ([1]; cho-k1) | Ki [2] | Ki [4]
COc1ccccc1C(=O)N1CCC(Cc2ccccc2)CC1 | Not Active | Not Active | Not Active | Not Active | Not Active | Not Active | Not Active | – | – | – | – | – | – | –
Cc1ccccc1C(=O)N1CCC(Cc2ccccc2)CC1 | Not Active | Not Active | Not Active | Not Active | Not Active | Not Active | Not Active | – | – | – | – | – | – | –
O=C1CC[C@H](N2C(=O)c3ccccc3C2=O)C(=O)N1 | Not Active | Not Active | Not Active | Not Active | Not Active | Not Active | Not Active | Not Active | Not Active | – | – | – | – | –
N=C(Nc1ccccc1)Nc1ccccc1 | Not Active | Not Active | Not Active | Not Active | Not Active | Not Active | Not Active | Not Active | Not Active | – | – | – | – | –
C[C@@H](O)[C@H](CO)NC(=O)[C@@H]1CSSC[C@H](NC(=O)[C@H](N)Cc2ccccc2)C(=O)N[C@@H](Cc2ccccc2)C(=O)N[C@H](Cc2c[nH]c3ccccc23)C(=O)N[C@@H](CCCCN)C(=O)N[C@@H]([C@@H](C)O)C(=O)N1 (H-[dF]CF[dW]KTC-{Threoninol(2S,3R)}; disulfide 2-7) | Not Active | Not Active | Not Active | Not Active | Not Active | Not Active | Not Active | Not Active | Not Active | – | – | – | – | –
S=C=Nc1cccc2ccccc12 [1-NAPHTHYLISOTHIOCYANATE] | – | Not Active | Not Active | Not Active | Not Active | Not Active | Not Active | Not Active | Not Active | 6.7 µM | 2.59 µM | – | – | –
C[C@](O)(CS(=O)(=O)c1ccc(F)cc1)C(=O)Nc1ccc(C#N)c(C(F)(F)F)c1 [(R)-BICALUTAMIDE] | Not Active | Not Active | Not Active | Not Active | Not Active | Not Active | Not Active | Not Active | Not Active | – | – | – | – | –
CCCC(=O)Nc1ccc(OCC(O)CNC(C)C)c(C(C)=O)c1 (stereo not given) [ACEBUTOLOL] | Not Active | Not Active | Not Active | Not Active | Not Active | Not Active | Not Active | – | – | – | – | – | – | –
CC(=O)Nc1ccc(O)cc1 [ACETAMINOPHEN] | Not Active | Not Active | Not Active | Not Active | Not Active | Not Active | Not Active | Not Active | Not Active | – | – | – | – | –
COc1cc2c(c3oc(=O)c4c(c13)CCC4=O)[C@@H]1C=CO[C@@H]1O2 [AFLATOXIN] | Not Active | Not Active | Not Active | Not Active | Not Active | Not Active | Not Active | Not Active | Not Active | – | – | Not Active | Not Active | Not Active
N=C(N)NC(=O)c1nc(Cl)c(N)nc1N [AMILORIDE] | Not Active | Not Active | Not Active | Not Active | Not Active | Not Active | Not Active | Not Active | Not Active | – | – | – | – | –
Cc1cc(=O)n(-c2ccccc2)n1C [ANTIPYRINE] | Not Active | Not Active | Not Active | Not Active | Not Active | Not Active | Not Active | – | – | – | – | – | – | –
CN1C(=O)COc2c(C(=O)NC3CN4CCC3CC4)cc(Cl)cc21 (stereo not given) [AZASETRON] | Not Active | Not Active | Not Active | Not Active | Not Active | Not Active | Not Active | Not Active | Not Active | – | – | – | – | –
C[C@H]1C[C@H]2[C@@H]3CCC4=CC(=O)C=C[C@]4(C)[C@@]3(Cl)[C@@H](O)C[C@]2(C)[C@@]1(O)C(=O)CO [BECLOMETHASONE] | Not Active | Not Active | Not Active | Not Active | Not Active | Not Active | Not Active | Not Active | Not Active | – | – | – | – | –
CCOC(=O)[C@H](CCc1ccccc1)N[C@H]1CCc2ccccc2N(CC(=O)O)C1=O [BENAZEPRIL] | Not Active | Not Active | Not Active | Not Active | Not Active | Not Active | Not Active | Not Active | Not Active | – | – | – | – | –
Nc1c(CC(=O)O)cccc1C(=O)c1ccc(Br)cc1 [BROMFENAC] | Not Active | Not Active | Not Active | Not Active | Not Active | Not Active | Not Active | Not Active | Not Active | – | – | – | – | –
CCCCN1CCCCC1C(=O)Nc1c(C)cccc1C.Cl (stereo not given) [BUPIVACAINE HYDROCHLORIDE] | Not Active | Not Active | Not Active | Not Active | Not Active | Not Active | Not Active | Not Active | Not Active | – | – | – | – | –

SMILES | IC50 ([1]; cho-k1) | IC50 [2] | IC50 [3] | Ki [3] | IC50 [4] | IC50 [5] | Ki [5] | IC50 [6] | Ki [6] | IC50 ([1]; read-out: IC50) | Ki ([1]; read-out: Ki) | Ki ([1]; cho-k1) | Ki [2] | Ki [4]
O=C1CC2(CCCC2)CC(=O)N1CCCCN1CCN(c2ncccn2)CC1 [BUSPIRONE] | Not Active | Not Active | Not Active | Not Active | Not Active | Not Active | Not Active | Not Active | Not Active | – | – | – | – | –
C[C@@]12C(=O)OC(=O)[C@]1(C)[C@H]1CC[C@@H]2O1 [CANTHARIDIN] | Not Active | Not Active | Not Active | Not Active | Not Active | Not Active | Not Active | Not Active | Not Active | – | – | – | – | –
O=NN(CCCl)C(=O)NCCCl [CARMUSTINE] | Not Active | Not Active | Not Active | Not Active | Not Active | Not Active | Not Active | – | – | – | – | – | – | –
CC1=C(C(=O)O)N2C(=O)[C@@H](NC(=O)[C@H](N)c3ccccc3)[C@H]2SC1 [CEPHALEXIN ANHYDROUS] | Not Active | Not Active | Not Active | Not Active | Not Active | Not Active | Not Active | – | – | – | – | – | – | –
O=C(N[C@H](CO)[C@H](O)c1ccc([N+](=O)[O-])cc1)C(Cl)Cl [CHLORAMPHENICOL] | Not Active | Not Active | Not Active | Not Active | Not Active | Not Active | Not Active | – | – | – | – | – | – | –
CCOC(=O)C(C)(C)Oc1ccc(Cl)cc1 [CLOFIBRATE] | Not Active | Not Active | Not Active | Not Active | Not Active | Not Active | Not Active | – | – | – | – | – | – | –
C[C@@H]1C[C@@H]([C@H](O)CC2CC(=O)NC(=O)C2)C(=O)[C@@H](C)C1 [CYCLOHEXIMIDE] | Not Active | Not Active | Not Active | Not Active | Not Active | Not Active | Not Active | – | – | – | – | – | – | –
C/C=C/C[C@@H](C)[C@@H](O)[C@H]1C(=O)N[C@@H](CC)C(=O)N(C)CC(=O)N(C)[C@@H](CC(C)C)C(=O)N[C@@H](C(C)C)C(=O)N(C)[C@@H](CC(C)C)C(=O)N[C@@H](C)C(=O)N[C@H](C)C(=O)N(C)[C@@H](CC(C)C)C(=O)N(C)[C@@H](CC(C)C)C(=O)N(C)[C@@H](C(C)C)C(=O)N1C [CYCLOSPORINE] | Not Active | Not Active | Not Active | Not Active | Not Active | Not Active | Not Active | – | – | – | – | – | – | –
CN(C)/N=N/c1[nH]cnc1C(N)=O [DACARBAZINE] | Not Active | Not Active | Not Active | Not Active | Not Active | Not Active | Not Active | – | – | – | – | – | – | –
CN(C)c1ccc(C(=C2C=CC(=[N+](C)C)C=C2)c2ccc(N(C)C)cc2)cc1.[Cl-] [GENTIAN VIOLET] | Not Active | Not Active | Not Active | Not Active | Not Active | Not Active | Not Active | – | – | – | – | – | – | –
NC(=O)NO [HYDROXYUREA] | Not Active | Not Active | Not Active | Not Active | Not Active | Not Active | Not Active | – | – | – | – | – | – | –
Oc1ccc(OCc2ccccc2)cc1 [MONOBENZONE] | Not Active | Not Active | Not Active | Not Active | Not Active | Not Active | Not Active | – | – | – | – | – | – | –
COc1ccc2cc([C@H](C)C(=O)O)ccc2c1 [NAPROXEN] | Not Active | Not Active | Not Active | Not Active | Not Active | Not Active | Not Active | – | – | – | – | – | – | –
COC(=O)C1=C(C)NC(C)=C(C(=O)OCC(C)C)C1c1ccccc1[N+](=O)[O-] (stereo not given) [NISOLDIPINE] | Not Active | Not Active | Not Active | Not Active | Not Active | Not Active | Not Active | – | – | – | – | – | – | –
CCOC(=O)C1=C(C)NC(C)=C(C(=O)OC)C1c1cccc([N+](=O)[O-])c1 (stereo not given) [NITRENDIPINE] | Not Active | Not Active | Not Active | Not Active | Not Active | Not Active | Not Active | – | – | – | – | – | – | –
CCn1cc(C(=O)O)c(=O)c2cc(F)c(N3CCN(C)CC3)cc21 [PEFLOXACIN] | Not Active | Not Active | Not Active | Not Active | Not Active | Not Active | Not Active | – | – | – | – | – | – | –
